The subject of experiment [1] is tumor bearing mice. Conditions: cited from earlier work.
Experiment [2] concerns animals undergoing experimental autoimmune encephalomyelitis (EAE). To be noted: mouse, in vivo; cited from earlier work.
The target of experiment [3] is T1, human arginase I (ARG I) (Homo sapiens, UniProt P05089).
T1 sequence (P05089 1-322): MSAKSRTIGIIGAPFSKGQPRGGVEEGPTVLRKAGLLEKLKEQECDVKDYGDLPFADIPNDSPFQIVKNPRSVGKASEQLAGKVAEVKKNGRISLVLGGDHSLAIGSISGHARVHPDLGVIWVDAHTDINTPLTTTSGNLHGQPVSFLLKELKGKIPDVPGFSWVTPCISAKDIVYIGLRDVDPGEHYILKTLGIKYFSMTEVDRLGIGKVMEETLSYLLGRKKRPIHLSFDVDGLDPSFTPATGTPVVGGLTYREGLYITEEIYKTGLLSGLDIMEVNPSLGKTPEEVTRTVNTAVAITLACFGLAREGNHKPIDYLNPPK
Put plainly: Inhibition of arginase I, spectrophotometric urea assay at 530 nm. Format: biochemical. Conditions: potency rank 1-5; pH 7.4, 37° C., 60 minutes. As for the experimental part: (§1) The assay established the concentration of inhibitor that is required to reduce arginase activity by 50% (IC50).
(§2) Inhibition of arginase I (ARG I) and arginase II (ARG II) by the inventive compounds is followed spectrophotometrically at 530 nm. The compound to be tested is dissolved in DMSO at an initial concentration 50-fold greater than its final concentration in the cuvette. 10 μl of the stock solution is diluted in 90 μl of the assay buffer that comprises 0.1M sodium phosphate buffer containing 130 mM NaCl, pH 7.4, to which is added ovalbumin (OVA) at a concentration of 1 mg/ml. Solutions of arginase I and II are prepared in 100 mM sodium phosphate buffer, pH 7.4 containing 1 mg/ml of OVA to give an arginase stock solution at a final concentration of 100 ng/ml.
(§3) To each well of a 96-well microtiter plate is add 40 μl of enzyme, 10 μl of an inventive compound and 10 μl of enzyme substrate (L-arginine+manganese sulfate). For wells that are used as positive controls, only the enzyme and its substrate are added, while wells used as negative controls contain only manganese sulfate.
(§4) After incubating the microtiter plate at 37° C. for 60 minutes, 150 μl of a urea reagent obtained by combining equal proportions (1:1) of reagents A and B is added to each well of the microtiter plate to stop the reaction. The urea reagent is made just before use by combining Reagent A (10 mM o-phthaldialdehyde, and 0.4% polyoxyethylene (23) lauryl ether (w/v) in 1.8 M sulfuric acid) with Reagent B (1.3 mM primaquine diphosphate, 0.4% polyoxyethylene (23) lauryl ether (w/v), 130 mM boric acid in 3.6 M sulfuric acid). After quenching the reaction mixture, the microtiter plate is allowed to stand for an additional 10 minutes at room temperature to allow color development. The inhibition of arginase is computed by measuring the optical density (OD) of the reaction mixture at 530 nm and normalizing the OD value to percent inhibition observed in the control. The normalized OD is then used to generate a dose-response curve by plotting the normalized OD values against log [concentration] and using regression analysis to compute the IC50 values.

Experiment [4] deals with T2, arginase II (ARG II) (Homo sapiens, UniProt P78540).
T2 sequence (P78540 23-354): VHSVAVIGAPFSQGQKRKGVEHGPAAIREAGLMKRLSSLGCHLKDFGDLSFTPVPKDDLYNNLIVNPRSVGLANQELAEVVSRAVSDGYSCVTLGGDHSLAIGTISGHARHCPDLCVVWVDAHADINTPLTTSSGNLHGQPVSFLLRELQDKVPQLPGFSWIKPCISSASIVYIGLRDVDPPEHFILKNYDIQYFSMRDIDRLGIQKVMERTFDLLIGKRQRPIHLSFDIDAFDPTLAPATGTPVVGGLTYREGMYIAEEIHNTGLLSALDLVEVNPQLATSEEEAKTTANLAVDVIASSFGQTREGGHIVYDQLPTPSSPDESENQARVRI
Put plainly: Inhibition of arginase II, spectrophotometric urea assay at 530 nm. Conditions: potency rank 1-5; pH 7.4, 37° C., 60 minutes. Format: biochemical. As to the method:
as §1, §2, §3, §4

The subject of experiment [5] is bacterial arginase. To be noted: cited from earlier work.
Experiment [6] concerns murine chronic model. Conditions: murine chronic asthma model; cited from earlier work.
For experiment [7], the system named is spontaneously hypertensive rats. To be noted: cited from earlier work.

We go through 15 compounds from patent US9200011B2, “Ring constrained analogs as arginase inhibitors” (Mars, Incorporated, priority 2012, dated 2015).

Structures are written as SMILES.

Regarding `O=c1[nH]cc(F)c(=O)[nH]1` [5-Fluorouracil], in experiment [1], the MDSC immunesuppression result is reported as “eliminates” and the tumor growth result is given as “delayed tumor growth”.

Take `NC(CCCCB(O)O)C(=O)O` (stereo not shown) [ABH, amino-6-boronohexanoic acid]: in experiment [2], the “severity of EAE versus control animals” value is on record as “much milder form of EAE”.

Broadly, the IC50 is the point on the concentration scale where inhibition reaches its midpoint. A low value points to greater potency in that assay. `N[C@@]1(C(=O)O)C[C@@H](CNCc2ccccc2)C[C@@H]1CCCB(O)O` [Example 1, (1S,2S,4S)-1-amino-4-((benzylamino)methyl)-2-(3-boronopropyl)cyclopentanecarboxylic acid]: the half-inhibitory concentration (IC50) in experiment [3] and in experiment [4] was 26 to 100 nM each time.

`N[C@@]1(C(=O)O)C[C@@H](CNCc2ccc(-c3ccc(Cl)cc3)cc2)C[C@@H]1CCCB(O)O` [Example 2, (1S,2S,4S)-1-amino-2-(3-boronopropyl)-4-((((4′-chloro-[1,1′-biphenyl]-4-yl)methyl)amino)methyl)cyclopentanecarboxylic acid]: the IC50 in experiment [3] and in experiment [4] was 26 to 100 nM in each case.

Take `N[C@@]1(C(=O)O)C[C@@H](CNC2Cc3ccccc3C2)C[C@@H]1CCCB(O)O` [Example 3, (1S,2S,4S)-1-amino-2-(3-boronopropyl)-4-(((2,3-dihydro-1H-inden-2-yl)amino)methyl)cyclopentanecarboxylic acid]: the IC50 in experiment [3] fell in the range of 26 to 100 nM; in experiment [4], 101 to 500 nM.

As to `N[C@@]1(C(=O)O)C[C@@H](CNC2CCc3ccccc3C2)C[C@@H]1CCCB(O)O` (stereo partly drawn) [Example 4, (1S,2S,4S)-1-amino-2-(3-boronopropyl)-4-(((1,2,3,4-tetrahydronaphthalen-2-yl)amino)methyl)cyclopentanecarboxylic acid], the IC50 in experiment [3] and in experiment [4] was 26 to 100 nM each time.

For `N[C@@]1(C(=O)O)C[C@@H](CNC2CCC2)C[C@@H]1CCCB(O)O` [Example 5, (1S,2S,4S)-1-amino-2-(3-boronopropyl)-4-((cyclobutylamino)methyl)cyclopentanecarboxylic acid], the IC50 in experiment [3] was 26 to 100 nM; in experiment [4], 101 to 500 nM.

Turning to `N[C@@]1(C(=O)O)C[C@@H](CN(C2CCC2)C2CCC2)C[C@@H]1CCCB(O)O` [Example 6, (1S,2S,4S)-1-amino-2-(3-boronopropyl)-4-((dicyclobutylamino)methyl)cyclopentanecarboxylic acid], the IC50 in experiment [3] and in experiment [4] was 101 to 500 nM in each case.

With `CN[C@@]1(C(=O)O)CCC[C@@H]1CCCB(O)O` [Example 7, (1S,2S)-2-(3-boronopropyl)-1-(methylamino) cyclopentanecarboxylic acid], the IC50 in experiment [3] and in experiment [4] was 501 to 1500 nM throughout.

For `N[C@@]1(C(=O)O)CCC[C@@H]1CCCB(O)O` [Example 8, (1S,2S)-1-amino-2-(3-boronopropyl)cyclopentanecarboxylic acid], the IC50 in experiment [3] and in experiment [4] was 101 to 500 nM in each case.

Turning to `N[C@@]1(C(=O)O)CNC[C@@H]1CCCB(O)O` [Example 9, (3R,4S)-3-amino-4-(3-boronopropyl)pyrrolidine-3-carboxylic acid], the IC50 in experiment [3] and in experiment [4] was 101 to 500 nM in each case.

As for `NC(=NCCC[C@H](N)C(=O)O)NO` [NOHA], in experiment [5], the “CD3 expression on T-cells” value is listed as “reestablished” and the “production of NO by macrophages” value is listed as “enhanced”.

Take `N[C@@H](CSCCB(O)O)C(=O)O` [S-(2-boronoethyl)-L-cysteine]: in experiment [6], the “methacholine induced responsiveness of the central airways” value is “attenuated”.

For the compound `Nc1ccn([C@@H]2O[C@H](CO)[C@@H](O)C2(F)F)c(=O)n1` [gemcitabine], in experiment [1], the MDSC immunesuppression result is “eliminates” and the tumor growth entry is reported as “delayed tumor growth”.

As for `N=C(NO)NCC[C@H](N)C(=O)O` [nor-NOHA, N^ω-hydroxy-nor-L-arginine], the “vascular response of resistance vessels to blood flow and pressure” value in experiment [7] (spontaneously hypertensive animals) is recorded as “improved”. Further, in experiment [7] (spontaneously hypertensive rats/animals), the blood pressure entry was “lowered blood pressure”.
